{
  "source": "patent US20080063642A1",
  "about": "“Methods of using (+)-1,4-dihydro-7-[(3S,4S)-3-methoxy-4-(methylamino)-1-pyrrolidinyl]-4-oxo-1-(2-thiazolyl)-1,8-naphthyridine-3-carboxylic acid for treatment of certain hematologic disorders” (priority 2006, published 2008)",
  "key": {"[1]": {"test_system": "CEM/C2 (camptothecan resistant derivative of CCRF-CEM)", "experiment": "MTT cell viability assay, CEM/C2", "format": "cell-based", "conditions": "Homo sapiens, MTT after 72 hours", "protocol": "(§1) The following cell lines were used in this assay: HL-60 (promyelocytic leukemia); Jurkat (T cell leukemia); CCRF-CEM (lymphoblastic leukemia); CEM/C2 (camptothecan resistant derivative of CCRF-CEM).\n(§2) Cells were seeded in 96 wells plates at 3000 cells per well and incubated for 16 hours. Compound dilutions were performed in DMSO from 10 mM with 3 fold dilutions. Titrations were diluted 1:100 in media to achieve final compound concentrations. The 96 well plates were aspirated and compound dilutions in media were added ([…]). MTT analysis was carried out after 72 hours of incubation at 37° C. Briefly, […] of MTT solution was added to each well. Cells were incubated at 37° C. for 1-2 hours. Cells were lysed with the addition of […] cell lysis buffer and MTT was solubilized overnight at 37° C. Plates were read on a spectromax machine with an absorbance measurement at […]. IC50's were calculated (data provided in Table 1) using regression analysis within GraphPad Prism."}, "[2]": {"test_system": "LM3-Jck human malignant lymphoma tumor", "experiment": "LM3-Jck xenograft model", "format": "in vivo", "conditions": "LM3-JcK", "protocol": "LM3-Jck human malignant lymphoma tumor lobes (2-3 mm square) were transplanted subcutaneously into nude mice. Tumors were allowed to grow to approximately 7-14 mm in diameter. […] Acceptable toxicity was defined as a mean group weight loss of 30% or less and not more than one toxic death among 6 treated animals. Anti-tumor activities of the drugs were assessed 21 days after the start of administration."}, "[3]": {"test_system": "CCRF-CEM (lymphoblastic leukemia)", "experiment": "MTT cell viability assay, CCRF-CEM", "format": "cell-based", "conditions": "Homo sapiens, MTT after 72 hours", "protocol": "as §1, §2"}, "[4]": {"test_system": "HL-60 (promyelocytic leukemia)", "experiment": "MTT cell viability assay, HL-60", "format": "cell-based", "conditions": "Homo sapiens, MTT after 72 hours", "protocol": "as §1, §2"}, "[5]": {"test_system": "CCRF-CEM acute lymphoblastic leukemia tumor", "experiment": "CCRF-CEM xenograft model", "format": "in vivo", "protocol": "CCRF-CEM acute lymphoblastic leukemia tumor lobes of 2-3 mm square were transplanted subcutaneously into nude mice. Tumors were allowed to grow to approximately 8-20 mm in diameter. […] Acceptable toxicity was defined as a mean group weight loss of 30% or less and not more than one toxic death among 6 treated animals. Anti-tumor activities of the drugs were assessed 20 or 21 days after the start of administration. FIGS. 1-2 and Table 2 provides data for tumor inhibition rate (IR) and survival ratio in the CCRF-CEM and LM3-Jck xenograft models."}, "[6]": {"conditions": "CCRF-CEM, 100 mg/kg q4d × 3, IV"}},
  "note": "Marks after values point to notes of the source that are not given here.",
  "data": [
    {"smiles": "COc1cccc2c1C(=O)c1c(O)c3c(c(O)c1C2=O)C[C@@](O)(C(=O)CO)C[C@@H]3O[C@H]1C[C@H](N)[C@H](O)[C@H](C)O1", "note": "[Doxorubicin]", "values": [
      {"measurement": "IC50", "setting": "[1]", "value": 0.017, "unit": "µg/mL"},
      {"measurement": "IR (%) tumor inhibition rate", "setting": "[2]; 12 mg/kg q7d × 3, IV", "value": "57.2* %"},
      {"measurement": "IC50", "setting": "[3]", "value": 0.003, "unit": "µg/mL"},
      {"measurement": "IC50", "setting": "[4]", "value": 0.024, "unit": "µg/mL"},
      {"measurement": "IR (%) tumor inhibition rate", "setting": "[5]; CCRF-CEM, 12 mg/kg q7d × 3, IV", "value": "50.3* %"}
    ]},
    {"smiles": "CCc1c2c(nc3ccc(OC(=O)N4CCC(N5CCCCC5)CC4)cc13)-c1cc3c(c(=O)n1C2)COC(=O)[C@]3(O)CC", "note": "[Irinotecan]", "values": [
      {"measurement": "IC50", "setting": "[1]", "value": 44.4, "unit": "µg/mL"},
      {"measurement": "IR (%) tumor inhibition rate", "setting": "[2]; 100 mg/kg q4d × 3, IV", "value": "97.7* %"},
      {"measurement": "Survival Ratio", "setting": "[2]; 100 mg/kg q4d × 3, IV", "value": "6/6"},
      {"measurement": "IC50", "setting": "[3]", "value": 0.479, "unit": "µg/mL"},
      {"measurement": "IC50", "setting": "[4]", "value": 0.905, "unit": "µg/mL"},
      {"measurement": "IR (%) tumor inhibition rate", "setting": "[5]; [6]", "value": "99.7* %"},
      {"measurement": "Survival Ratio", "setting": "[5]; [6]", "value": "5/6"}
    ]},
    {"smiles": "COc1cc([C@@H]2c3cc4c(cc3[C@@H](O[C@@H]3O[C@@H]5CO[C@@H](C)O[C@H]5[C@H](O)[C@H]3O)[C@H]3COC(=O)[C@H]23)OCO4)cc(OC)c1O", "note": "[Etoposide]", "values": [
      {"measurement": "IR (%) tumor inhibition rate", "setting": "[2]; 12 mg/kg qd × 5, IV", "value": 3.0, "unit": "%"},
      {"measurement": "IC50", "setting": "[4]", "value": 0.136, "unit": "µg/mL"},
      {"measurement": "IR (%) tumor inhibition rate", "setting": "[5]; CCRF-CEM, 12 mg/kg qd × 5, IV", "value": 28.3, "unit": "%"},
      {"measurement": "Survival Ratio", "setting": "[5]; nude, mouse, in vivo, iv, 12 mg/kg", "value": "6/6"}
    ]}
  ]
}
